US10370727B2, “Point mutations in TRK inhibitor-resistant cancer and methods relating to the same” (Loxo Oncology, Inc., priority 2015, dated 2019)

Assays:
Assay in all cases: Trk enzyme assay ([33P] incorporation into poly-EAY)
Assay type in all cases: biochemical
[1] = target: TrkA F589L (Homo sapiens, UniProt P04629, F589L); conditions: mutant TrkA F589L enzyme; 22° C., 60 minutes
Procedure: (§1) The activity of the various Trk compounds exemplified in Table 6 was determined by monitoring the incorporation of [^33P]PO4 from [γ-^33P]ATP into poly-EAY (Sigma-Aldrich, P3899).
(§2) The assays were conducted in 96-well polypropylene v-bottom microtitre plates (Corning, Costar® 3363) in a total volume of 50 μL. […] The radiolabeled product was then captured on glass fiber filter plates (PerkinElmer, Unifilter®-96, GF/B®) and washed with 5% phosphoric acid to remove unbound radiolabel using a Tomtec MACH III Harvester 96®. After adding 35 μL/well of Bio-Safe II™ liquid scintillation cocktail (Research Products International), the plates were counted in a TopCount NXT (PerkinElmer) using a counting time of 30 s/well. The activity at each concentration of compound was expressed as percent of control (POC) and plotted versus compound concentration.

[2] = target: TrkC WT (Homo sapiens, UniProt Q16288, S70N); conditions: wild-type TrkC enzyme; 22° C., 60 minutes
Procedure: as §2

[3] = target: TrkC G623R (Homo sapiens, UniProt Q16288, G623R/S70N); conditions: mutant TrkC G623R enzyme; 22° C., 60 minutes
Procedure: The radiolabeled product was then captured on glass fiber filter plates (PerkinElmer, Unifilter®-96, GF/B®) and washed with 5% phosphoric acid to remove unbound radiolabel using a Tomtec MACH III Harvester 96®. After adding 35 μL/well of Bio-Safe II™ liquid scintillation cocktail (Research Products International), the plates were counted in a TopCount NXT (PerkinElmer) using a counting time of 30 s/well. The activity at each concentration of compound was expressed as percent of control (POC) and plotted versus compound concentration.

[4] = target: TrkB WT (Homo sapiens, UniProt Q16620); conditions: wild-type TrkB enzyme; 22° C., 60 minutes
Procedure: as §2

[5] = target: TrkA G595R (Homo sapiens, UniProt P04629, G595R); conditions: mutant TrkA G595R enzyme; 22° C., 60 minutes
Procedure: as §1, §2

[6] = target: TrkA G667C (Homo sapiens, UniProt P04629, G667C); conditions: mutant TrkA G667C enzyme; 22° C., 60 minutes
Procedure: as §1, §2

[7] = target: TrkA V573M (Homo sapiens, UniProt P04629, V573M); conditions: mutant TrkA V573M enzyme; 22° C., 60 minutes
Procedure: as §1, §2

[8] = target: TrkC F617L (Homo sapiens, UniProt Q16288, F617L/S70N); conditions: mutant TrkC F617L enzyme; 22° C., 60 minutes
Procedure: as §2

[9] = target: TrkA G667S (Homo sapiens, UniProt P04629, G667S); conditions: mutant TrkA G667S enzyme; 22° C., 60 minutes
Procedure: as §1, §2

[10] = target: TrkA WT (Homo sapiens, UniProt P04629); conditions: wild-type TrkA enzyme; 22° C., 60 minutes
Procedure: as §2

[11] = target: TrkB G623R (Homo sapiens, UniProt Q16620, G623R); conditions: mutant TrkB G623R enzyme; 22° C., 60 minutes
TrkB G623R, sequence (Q16620 32-822 G623R): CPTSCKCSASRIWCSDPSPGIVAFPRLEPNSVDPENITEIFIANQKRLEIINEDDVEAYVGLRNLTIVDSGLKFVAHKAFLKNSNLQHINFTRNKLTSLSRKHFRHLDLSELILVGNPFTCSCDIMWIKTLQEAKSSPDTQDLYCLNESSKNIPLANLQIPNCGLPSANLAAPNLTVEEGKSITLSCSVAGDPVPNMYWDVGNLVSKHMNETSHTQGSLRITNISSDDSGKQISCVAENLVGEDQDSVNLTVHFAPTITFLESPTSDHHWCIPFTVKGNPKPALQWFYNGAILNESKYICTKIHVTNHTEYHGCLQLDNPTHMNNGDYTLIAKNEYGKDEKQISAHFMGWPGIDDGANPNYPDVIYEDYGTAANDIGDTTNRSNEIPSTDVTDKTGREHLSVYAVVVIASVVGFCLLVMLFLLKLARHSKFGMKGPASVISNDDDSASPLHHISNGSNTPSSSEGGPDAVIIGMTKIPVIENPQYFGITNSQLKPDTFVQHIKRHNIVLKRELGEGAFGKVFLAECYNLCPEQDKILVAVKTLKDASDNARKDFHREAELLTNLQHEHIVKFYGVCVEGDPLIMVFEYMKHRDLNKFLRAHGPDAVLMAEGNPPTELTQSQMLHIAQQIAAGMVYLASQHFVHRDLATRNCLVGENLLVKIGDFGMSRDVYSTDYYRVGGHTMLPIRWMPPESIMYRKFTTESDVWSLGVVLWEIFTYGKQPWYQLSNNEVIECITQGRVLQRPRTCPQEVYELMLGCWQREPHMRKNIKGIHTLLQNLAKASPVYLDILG
Procedure: as §2

TrkC F617L, sequence (Q16288 32-839 S70N/F617L): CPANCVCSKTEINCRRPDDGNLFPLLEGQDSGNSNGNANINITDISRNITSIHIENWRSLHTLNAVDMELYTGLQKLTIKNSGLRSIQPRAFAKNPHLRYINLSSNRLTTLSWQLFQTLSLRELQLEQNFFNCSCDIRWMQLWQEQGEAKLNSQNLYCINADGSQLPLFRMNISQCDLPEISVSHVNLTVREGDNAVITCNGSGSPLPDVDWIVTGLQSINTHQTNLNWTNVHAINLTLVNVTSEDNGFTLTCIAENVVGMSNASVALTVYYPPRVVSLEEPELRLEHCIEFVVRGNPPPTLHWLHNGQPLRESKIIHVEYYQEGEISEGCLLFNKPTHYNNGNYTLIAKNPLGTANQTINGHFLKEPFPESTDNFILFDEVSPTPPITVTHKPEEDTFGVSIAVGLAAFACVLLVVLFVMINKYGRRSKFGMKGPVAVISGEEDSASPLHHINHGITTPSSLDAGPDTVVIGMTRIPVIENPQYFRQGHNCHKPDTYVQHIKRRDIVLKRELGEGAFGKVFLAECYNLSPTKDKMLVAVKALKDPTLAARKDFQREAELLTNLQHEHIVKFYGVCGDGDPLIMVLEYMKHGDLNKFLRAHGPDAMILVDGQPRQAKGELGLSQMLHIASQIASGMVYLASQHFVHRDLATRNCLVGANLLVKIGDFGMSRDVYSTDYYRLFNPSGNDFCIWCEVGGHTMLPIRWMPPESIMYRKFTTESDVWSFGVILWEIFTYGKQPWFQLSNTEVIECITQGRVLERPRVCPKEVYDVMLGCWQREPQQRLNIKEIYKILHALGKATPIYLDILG
TrkA WT, sequence (P04629 33-796): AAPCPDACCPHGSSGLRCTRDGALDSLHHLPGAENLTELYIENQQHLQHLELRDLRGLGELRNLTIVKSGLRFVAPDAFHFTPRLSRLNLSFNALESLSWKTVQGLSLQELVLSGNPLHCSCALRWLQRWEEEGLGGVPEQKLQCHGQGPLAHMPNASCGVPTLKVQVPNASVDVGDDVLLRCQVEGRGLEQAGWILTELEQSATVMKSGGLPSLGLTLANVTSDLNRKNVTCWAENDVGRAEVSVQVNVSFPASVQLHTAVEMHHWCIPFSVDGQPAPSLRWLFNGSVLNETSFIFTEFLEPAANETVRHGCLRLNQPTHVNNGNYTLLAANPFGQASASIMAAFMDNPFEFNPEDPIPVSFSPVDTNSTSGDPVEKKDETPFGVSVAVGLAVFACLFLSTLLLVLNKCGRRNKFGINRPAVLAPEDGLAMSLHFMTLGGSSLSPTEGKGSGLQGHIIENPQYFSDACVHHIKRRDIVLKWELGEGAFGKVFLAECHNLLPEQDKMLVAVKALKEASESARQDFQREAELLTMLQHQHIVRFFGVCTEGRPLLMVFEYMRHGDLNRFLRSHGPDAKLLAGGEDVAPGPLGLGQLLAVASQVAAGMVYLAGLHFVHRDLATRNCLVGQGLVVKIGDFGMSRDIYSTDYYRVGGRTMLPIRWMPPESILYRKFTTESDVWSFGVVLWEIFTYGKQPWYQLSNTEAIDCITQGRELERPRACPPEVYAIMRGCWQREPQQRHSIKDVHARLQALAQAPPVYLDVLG
TrkA V573M, sequence (P04629 33-796 V573M): as the sequence (P04629 33-796) above, with V541M counted along it
TrkC WT, sequence (Q16288 32-839 S70N): as the sequence (Q16288 32-839 S70N/F617L) above, with L586F counted along it
TrkC G623R, sequence (Q16288 32-839 S70N/G623R): as the sequence (Q16288 32-839 S70N/F617L) above, with L586F, G592R counted along it
TrkA F589L, sequence (P04629 33-796 F589L): as the sequence (P04629 33-796) above, with F557L counted along it
TrkB WT, sequence (Q16620 32-822): as the sequence (Q16620 32-822 G623R) above, with R592G counted along it
TrkA G667C, sequence (P04629 33-796 G667C): as the sequence (P04629 33-796) above, with G635C counted along it
TrkA G595R, sequence (P04629 33-796 G595R): as the sequence (P04629 33-796) above, with G563R counted along it
TrkA G667S, sequence (P04629 33-796 G667S): as the sequence (P04629 33-796) above, with G635S counted along it

Row | SMILES | IC50 [1] [nM] | IC50 [2] [nM] | IC50 [3] [nM] | IC50 [4] [nM] | IC50 [5] [nM] | IC50 [6] [nM] | IC50 [7] [nM] | IC50 [8] [nM] | IC50 [9] [nM] | IC50 [10] [nM] | IC50 [11] [nM]
1 | O=C1NCCCOc2ccc(F)cc2[C@H]2CCCN2c2ccn3ncc1c3n2 [Compound 19, (6R)-9-fluoro-13-oxa-2,17,21,22,25-pentaazapentacyclo[17.5.2.0^2,6.0^7,12.0^22,26] hexacosa-1(25),7,9,11,19(26),20,23-heptaen-18-one] | 1.1 | < 2.5 | 1.8 | 4.4 | 1.2 | 0.9 | < 5 | 5.1 | 0.3 | 0.5 | 1
2 | O=C1OCCOc2ncc(F)cc2[C@H]2CCCN2c2ccn3ncc1c3n2 [Compound 22, (6R)-9-fluoro-13,16-dioxa-2,11,20,21,24-pentaazapentacyclo[16.5.2.0^2,6.0^7,12.0^21,25]-pentacosa-1(24),7,9,11,18(25),19,22-heptaen-17-one] | 8.4 | < 2.5 | 1.5 | 2.9 | 1.5 | 5.7 | < 5 | 5.4 | 0.9 | 0.5 | 1.3
3 | CN(CCO)C(=O)Nc1cnc2ccc(N3CCC[C@@H]3c3cc(F)ccc3F)nn12 [Compound 6, (R)-3-(6-(2-(2,5-difluorophenyl)pyrrolidin-1-yl)imidazo[1,2-b]pyridazin-3-yl)-1-(2-hydroxyethyl)-1-methylurea] |  | < 2.5 | 24.1 | 5 |  |  |  | 49.7 |  |  | 27.5
4 | O=C1NCC(F)(F)COc2ncc(F)cc2[C@H]2CCCN2c2ccn3ncc1c3n2 [Compound 23, (6R)-9,15,15-trifluoro-13-oxa-2,11,17,21, 22,25-hexaazapentacyclo [17.5.2.0^2,6.0^7,12.0^22,26]hexacosa-1(25),7,9, 11,19(26),20,23-heptaen-18-one] | < 1 | 2.7 | 2.1 | 6.1 | 1.6 | 0.8 | < 5 | 5.8 | 0.3 | 0.7 | 1.1
5 | O=C1NC[C@@H](O)COc2ncc(F)cc2[C@H]2CCCN2c2ccn3ncc1c3n2 [Compound 17, (6R,15R)-9-fluoro-15-hydroxy-13-oxa-2,11,17,21,22,25-hexaazapentacyclo-[17.5.2.0^2,6.0^7,12.0^22,26]-hexacosa-1(25), 7,9,11,19(26),20,23-heptaen-18-one] | 2.1 | < 2.5 | 1.8 | 3.6 | 1.5 | 2.6 | < 5 | < 5 | 0.7 | < 0.5 | 1.1
6 | NC(=O)c1cnn2ccc(N3CCC[C@@H]3c3cc(F)ccc3F)nc12 [Compound 12, (R)-5-(2-(2,5-difluorophenyl)pyrrolidin-1-yl)pyrazolo[1,5-a]pyrimidine-3-carboxamide] | 21 | < 2.5 | 1.6 | 3.3 | 1 | 15.6 | 14.9 | 9.9 | 3.6 | < 0.5 | 1.3
7 | O=C(NC1CC1)c1cnn2ccc(N3CCC[C@@H]3c3cncc(F)c3)nc12 [Compound 13, (R)-N-cyclopropyl-5-(2-(5-fluoro-pyridin-3-yl)pyrrolidin-1-yl)pyrazolo [1,5-a]pyrimidine-3-carboxamide] | 37.2 | < 2.5 | 3.1 | 3.5 | 3.3 | 32.4 | 20.9 | 8.7 | 4.1 | < 0.5 | 2.7
8 | O=C(Nc1cnn2ccc(N3CCC[C@@H]3c3cc(F)ccc3Cl)nc12)N1CC(O)C1 [Compound 9, (R)-N-(5-(2-(2-chloro-5-fluorophenyl)pyrrolidin-1-yl)pyrazolo[1,5-a]pyrimidin-3-yl)-3-hydroxyazetidine-1-carboxamide] | 90.7 | < 2.5 | 92.6 | 4.6 | 91.9 | 76.5 | 106 | 66.5 | 21.6 | 0.8 | 104
